What was measured:
[1] = In vitro permeation (flux) across rat skin, modified Franz diffusion cell; format: in vitro ADME, Sprague-Dawley rats
Source text: The flux of a specific formulation can be determined using a modified Franz diffusion cell as discussed herein. First, skin from female Sprague-Dawley rats (200-250 g body weight) can be obtained. The rats are anesthetized, the abdominal skin shaved and then excised. Excess fat and connective tissues are removed. The skin (1.77 cm^2) is sandwiched between the two chambers of a modified Franz diffusion cell, with the surface of the skin facing the upper (donor) chamber of the cell. A measured amount of the androgen containing formulation is applied to the surface of the skin, so that the skin is completely covered. The lower (recipient) chamber is filled with sterile saline, which completely bathes the lower surface of the rat skin. The contents of the recipient chamber are constantly stirred with a magnetic stirrer. Aliquots of the saline in the recipient chamber is removed at predetermined intervals and analyzed by HPLC. The saline remains in constant contact with the skin at all times. The Franz cell is maintained at 37° C. for the duration of each test.
An in vitro modified Franz cell system as described in Example 2 was used to study the permeability of testosterone and MENT from various transdermal dosage forms through rat skin. Various topical cream, gel and patch formulations were tested. The concentration of testosterone and MENT in all of the gels and creams described herein was 2 mg per gram of gel or cream. The following formulations were tested: […]
The gel (nearly identical to formulation T from Example 1) was produced by taking all of the aqueous components and mixing them under medium agitation in one vessel and all the organic, non-aqueous materials and mixing them in a separate vessel. The organic mixture and aqueous mixture were then mixed together using medium agitation provided by a paddle mixer. Of course, a lightning mixer or magnetic stirrer could also be used. The viscosity profile of the gel produced is illustrated in FIG. 20. Steroid permeation (in vitro) across Rat Skin for each of these gel formulations were tested using a two chambers of a modified Franz diffusion cell as previously described. Skin from female Sprague-Dawley rats (200-250 g body weight) were used in these studies. The rats were anesthetized, the abdominal skin was shaved and excised. Excess fat and connective tissues were removed. The skin (1.77 cm^2) was sandwiched between the two chambers of a modified Franz diffusion cell, with the surface of the skin facing the upper (donor) chamber of the cell. Approximately 0.5 gm of gel (1 mg steroid) was applied to the surface of the skin, so that the skin was completely covered with the gel. The lower (recipient) chamber was filled with 11.4 ml of sterile saline, which completely bathed the lower surface of the rat skin. The contents of the recipient chamber was constantly stirred with a magnetic stirrer during the experiment. Aliquots of 200 μL of the saline in the recipient chamber were removed at intervals of 1 h for 4 h; and analyzed by HPLC for either MENT on T. The saline remained in constant contact with the skin at all times. The Franz cell was maintained at 37° C. for the duration of the test.

[2] = Bioavailability of transdermal MENT gel formulations in rabbits (serum MENT by radioimmunoassay); format: in vivo, New Zealand white rabbits
Procedure: The bioavailability of three transdermal MENT gel formulations (2 mg MENT/g gel) (formulations O, F and T) were studied in rabbits. Three New Zealand white rabbits weighing 3.5-4.5 kg were used in each group. To each animal, 0.2 g gel (0.4 mg MENT) or 0.4 g gel (0.8 mg MENT) was applied to 5×5 cm or 10×10 cm area of shaved skin for three consecutive days. On days 1 and 3, blood samples were collected at 0, 1, 2, 4 and 8 hours after application of the gel. Serum MENT levels were determined by radioimmunoassay.

C[C@@H]1CC2=CC(=O)CC[C@@H]2[C@H]2CC[C@]3(C)[C@@H](O)CC[C@H]3[C@@H]21 [MENT, 7α-methyl-19-nortestosterone]
Permeation (concentrations and flux rates) through rat skin compared with testosterone ([1]; all other formulations (1 patch, 2 creams and 7 gels), FIGS. 3 to 7 and 9 to 13): considerably higher concentrations and flux rates than that of testosterone | Flux across rat skin compared with testosterone ([1]; certain dosage forms (FIGS. 3, 4, 6, 7, 10, 11 and 12)): more than double that of testosterone | Rate of skin penetration compared with T ([1]; gel of Example 2, 0.5 gm gel (1 mg steroid), 1-4 h, FIG. 1): faster rate than T | Steroid flux compared with T ([1]; gel of Example 2, each time period studied, FIG. 2): greater at each time period studied | Flux compared with MENT Ac ([1]; general statement, no data shown): generally greater than that of MENT Ac | Flux compared with testosterone ([1]; summary statement, depending upon the particular transdermal formulation): as much as twice that of testosterone or more | Dose dependence of bioavailability ([2]; 0.4 vs 0.8 mg MENT, Table 1): dose dependent | Permeation through rabbit skin / serum levels ([2]; gel formulations O, F and T, FIGS. 14 to 19): permeated through rabbit skin and give measurable serum levels

Reference: patent US20040126418A1, “Transdermal administration of MENT” (The Population Council, Inc., priority 1997, published 2004)
